The results in this text go back to patent publication US7982017B2, “Antibodies recognizing a carbohydrate containing epitope on CD-43 and CEA expressed on cancer cells and methods using same” (BioAlliance C.V., priority 2007, dated 2011).

One experiment concerns Colo205 cells. As to the kind of experiment: Apoptosis of Colo205 cells by 5F1 antibodies in combination with Oxaliplatin (24 h, Annexin V / PI). The settings on record: background subtracted. Type of experiment: cell-based. The method, then: 1.4×10^5 of Colo205 cells were seeded into the wells of 96-well plates. Aliquots of Oxaliplatin reconstituted in 5% glucose solution were prepared freshly and added to each well at the final concentration of 1 and 10 ug/ml, along or in combination with aliquots of purified c5F1-v17, c5F1-v24, c5F1-v25 and control antibodies at the final concentrations of 10 and 30 ug/ml. The treated cells were kept at 37° incubator for 24 h before FACS analysis for apoptosis. For cellular apoptosis assay, Annexin V staining was measured using Annexin-V-FITC Apoptosis Detection Kit (Strong Biotech, Cat. No. AV 250) following the manufacturer's instruction. In brief, the treated cells were harvested and resuspended in Annexin V binding buffer containing Annexin V-FITC at room temperature. After 15 min incubation in the dark, the cells were washed twice with 200 ul of Annexin V binding buffer. Before FACS analysis, 0.5 ul of propidium iodide (PI) was added. All flow cytometric analyses were performed on a BD-LSR flow cytometer (Becton Dickinson) using the Cell Quest software. The Annexin V positive and/or PI positive cells are considered apoptotic cells.

The test system of experiment [1] is COLO 205 cells. As to the kind of experiment: Binding assay: flow cytometric binding of 5F1 antibodies to COLO 205 cells. As to conditions: for binding to Colo 205 (words): FIG. 3, 0.125 to 4 ug/ml. The method, then: Purified m5F1, c5F1-v0, c5F1-v15 and c5F1-v16 antibodies at the concentration ranging from 0.125 to 4 ug/ml were added to 1.5×10^5 COLO 205 cells and incubated for 30 min at 4° C., washed for twice with PBS containing 2% FBS and 0.05% NaN3, followed by incubation with 1 μg/ml of corresponding secondary antibodies (R-PE-conjugated goat F(ab′)2 anti-mouse IgG(H+L), Southern Biotech, Cat. No. 1032-09; or R-PE-conjugated goat anti-human IgG, Southern Biotech, Cat. No. 2040-09) at 4° C. for 30 min. At the end of staining, samples were washed twice with PBS containing 2% FBS and 0.05% NaN3 and analyzed by flow cytometer. All flow cytometric analyses were performed on a BD-LSR flow cytometer (Becton Dickinson) using the Cell Quest software.
Purified m5F1, c5F1-v0, c5F1-yl7, c5F1-v24 and c5F1-v25 antibodies at 1 ug/ml were added to 2×10^5 Colo 205 cells and incubated for 30 min at 4° C., washed for twice with PBS containing 1% FBS, followed by incubation with 1 ug/ml of corresponding secondary antibodies (R-PE-conjugated goat F(ab′)2 anti-mouse IgG(H+L), Southern Biotech, Cat. No. 1032-09; or R-PE-conjugated goat anti-human IgG, Southern Biotech, Cat. No. 2040-09) at 4° C. for 30 min. At the end of staining, samples were washed twice with PBS containing 1% FBS and 0.05% NaN3 and analyzed by flow cytometer. All flow cytometric analyses were performed on a BD-LSR flow cytometer (Becton Dickinson) using the Cell Quest software.

In experiment [2] the test system is COLO 205 cells. As to the kind of experiment: Six-hour apoptosis assay (Annexin V / PI, FACS) in COLO 205. Type of experiment: cell-based. As to conditions: 6 h. The procedure:
1.5×10^5 of COLO 205 cells were seeded into the wells of 96-well plates. Aliquots of purified m5F1, c5F1-v0, c5F1-v15, c5F1-v16 and control antibodies at the concentration ranging from 2 to 32 ug/ml were prepared freshly in culture medium and added to each well. The sample treated with m9E10 and h16C11A were used as isotype control. The treated cells were kept at 37° incubator for 6 h before FACS analysis for apoptosis. For cellular apoptosis assay, Annexin V staining was measured using Annexin-V-FITC Apoptosis Detection Kit (Strong Biotech, Cat. No. AVK250) following the manufacturer's instruction. In brief, the treated cells were harvested and resuspended in Annexin V binding buffer containing Annexin V-FITC at room temperature. After 15 min incubation in the dark, the cells were washed twice with 200 μl of Annexin V binding buffer. Before FACS analysis, 0.25 μg/ml of propidium iodide (PI) was added. All flow cytometric analyses were performed on a BD-LSR flow cytometer (Becton Dickinson) using the Cell Quest software. The Annexin VI positive and/or PI positive cells are considered apoptotic cells.
1.5×10^5 of Colo205 cells were seeded into the wells of 96-well plates. Aliquots of purified m5F1, c5F1, c5F1-v17, c5F1-v24, c5F1-v25 and control antibodies at the concentration ranging from 8 to 32 ug/ml were prepared freshly in culture medium and added to each well. The treated cells were kept at 37° incubator for 6 h before FACS analysis for apoptosis. For cellular apoptosis assay, Annexin V staining was measured using Annexin-V-FITC Apoptosis Detection Kit (Strong Biotech, Cat. No. AV 250) following the manufacturer's instruction. In brief, the treated cells were harvested and resuspended in Annexin V binding buffer containing Annexin V-FITC at room temperature. After 15 min incubation in the dark, the cells were washed twice with 200 ul of Annexin V binding buffer. Before FACS analysis, 0.25 ug/ml of propidium iodide (PI) was added. All flow cytometric analyses were performed on a BD-LSR flow cytometer (Becton Dickinson) using the Cell Quest software. The Annexin VI positive and/or PI positive cells are considered apoptotic cells.

With `O=C1[O][Pt]2([NH][C@@H]3CCCC[C@H]3[NH]2)[O]C1=O` [Oxaliplatin], the entries for the “% apoptosis” value with Colo205 cells (Oxaliplatin 1 ug/ml alone (Antibody 0)) and in the experiment with Colo205 cells (Oxaliplatin 10 ug/ml alone (Antibody 0)) were 2% and 6%, respectively.
Consider “c5F1-v0: chimeric 5F1: variable region of murine 5F1 with constant region of human IgG1; heavy chain v0[H], light chain v0[L]”, for which the “binding to Colo 205 (words)” value in the experiment on COLO 205 cells [1] was “bind COLO 205 cells”; with COLO 205 cells [1] (listed as c5F1v0) it was “significant binding”. Further, the “Median Fluorescence Intensity (MFI)” value in the experiment on COLO 205 cells [1] (Table 10, antibodies at 1 ug/ml) came out at 2760. The “apoptosis-inducing activity in COLO 205” value in the experiment on COLO 205 cells [2] (2 to 32 ug/ml, compared with m5F1) is “not as efficient as m5F1”. The “% of Annexin V and/or PI positive cells” value was determined as 33% in the experiment on COLO 205 cells [2] (Table 7, 4 ug/ml); 46% with COLO 205 cells [2] (Table 7, 8 ug/ml); 68% with COLO 205 cells [2] (Table 7, 16 ug/ml); 78% with COLO 205 cells [2] (Table 7, 32 ug/ml); 34% with COLO 205 cells [2] (Table 11 Exp. 1, 8 ug/ml); 60% in the experiment on COLO 205 cells [2] (Table 11 Exp. 1, 16 ug/ml). Moreover, the “% of Annexin V and/or PI positive cells” value with COLO 205 cells [2] (Table 11 Exp. 1, 32 ug/ml) stood at 70%; in the experiment with COLO 205 cells [2] (Table 11 Exp. 2, 8 ug/ml) it was 54%; in the experiment with COLO 205 cells [2] (Table 11 Exp. 2, 16 ug/ml) it was 63%; in the experiment on COLO 205 cells [2] (Table 11 Exp. 2, 32 ug/ml), 69%.
